Measurements published in patent US7105531B2, “Tricyclic protein kinase inhibitors” (WYETH, priority 1999, dated 2006).

| melting point | Compound |
| --- | --- |
| 171 to 173 °C | COc1cc(Nc2c(C#N)cnc3cc4cc(OC)c(OC)cc4cc23)c(C)cc1Cl |
| > 260 °C | N#Cc1cnc2cc3c(cc2c1Nc1ccc(Oc2ccccc2)cc1)ncn3CCN1CCOCC1 [Example 58, 3-[2-(4-Morpholinyl)ethyl]-8-(4-phenoxyanilino)-3H-imidazo[4,5-g]quinoline-7-carbonitrile] |
| 251 to 253 °C | COc1cc2cc3ncc(C#N)c(Nc4ccc(Oc5ccccc5)c(Cl)c4)c3cc2cc1OCCN1CCOCC1 [Example 214, 4-(3-Chloro-4-phenoxyphenylamino)-8-methoxy-7-(2-morpholin-4-yl-ethoxy)benzo[g]quinoline-3-carbonitrile] |
| 85 to 86 °C | CCOC(=O)CN(CCOc1cc2cc3ncc(C#N)c(Nc4cc(OC)c(Cl)cc4C)c3cc2cc1OCC)CC(=O)OCC [Example 193, ({2-[4-(4-Chloro-5-methoxy-2-methylphenylamino)-3-cyano-7-ethoxybenzo[g]quinoline-8-yloxy]-ethyl}-ethoxycarbonylmethylamino)-acetic acid ethyl ester] |
| 201 to 207 °C | COc1cc2cc3c(Nc4ccc(Sc5nccn5C)c(Cl)c4)c(C#N)cnc3cc2cc1OCCn1ccnn1 [Example 154, 4-[3-Chloro-4-(1-methyl-1H-imidazol-2-ylsulfanyl)phenylamino]-7-methoxy-8-(2-[1,2,3]triazol-1-yl-ethoxy)benzo[g]quinoline-3-carbonitrile] |
| 286 to 287 °C | C=CC(=O)Nc1cccc2c1sc1c(Nc3cccc(Br)c3)c(C#N)cnc12 [Example 94, N-[4-(3-Bromoanilino)-3-cyano[1]benzothieno[3,2-b]pyridin-6-yl]acrylamide] |
| > 300 °C | COc1cc2cc3c(Nc4ccc(Sc5nccn5C)c(Cl)c4)c(C#N)cnc3cc2cc1OCCN1CCOCC1 [Example 149] |
| 148 to 150 °C | COc1ccc(C)c(Nc2c(C#N)cnc3c2C=C2N=C(NCCN4CCOCC4)N=C2C3)c1 [Example 31, 8-(5-Methoxy-2-methylanilino)-2-{[2-(4-morpholinyl)ethyl]amino}imidazo [4,5-g]quinoline-7-carbonitrile] |
| 175 to 179 °C | N#Cc1cnc2c(oc3ccccc32)c1Nc1ccc(Oc2ccccc2)cc1 [Example 88, 4-(4-Phenoxyphenylamino)benzo[4,5]furo[3,2-b]pyridine-3-carbonitrile] |
| > 300 °C | N#Cc1cnc2c(c1Nc1ccc(Oc3ccccc3)cc1)C=C1N=C(N)N=C1C2 [Example 34, 2-Amino-8-(4-phenoxyanilino)imidazo[4,5-g]quinoline-7-carbonitrile] |
| 115 to 117 °C | CN(C)CCOc1ccc2cc3ncc(C#N)c(Nc4ccc(Cl)cc4Cl)c3cc2c1 [Example 107, 4-(2,4-Dichloroanilino)-7-[2-(dimethylamino)ethoxy]benzo[g]quinoline-3-carbonitrile] |
| > 250 °C (dec.) | COc1cc2cc3c(Nc4ccc(Sc5nccn5C)c(Cl)c4)c(C#N)cnc3nc2cc1OCCCl [Example 174, 8-(2-Chloroethoxy)-4-{3-chloro-4-[(1-methyl-1H-imidazol-2-yl)sulfanyl]anilino}-7-methoxybenzo[b][1,8]naphthyridine-3-carbonitrile] |
| 238 to 240 °C | COc1cc2cc3c(Nc4cc(OC)c(Cl)cc4Cl)c(C#N)cnc3cc2cc1O [Example 155, 4-(2,4-Dichloro-5-methoxyphenylamino)-8-hydroxy-7-methoxybenzo[g]quinoline-3-carbonitrile] |

Continued, molecule first:

| Compound | melting point |
| --- | --- |
| COc1ccc2cc3ncc(C#N)c(Nc4ccc(Cl)cc4Cl)c3cc2c1 [Example 103, 4-(2,4-Dichloroanilino)-7-methoxybenzo[g]quinoline-3-carbonitrile] | 215 to 217 °C |
| N#Cc1cnc2c(oc3ccccc32)c1Nc1cccc(Br)c1 [Example 85, 4-(3-Bromophenylamino)benzo[4,5]furo[3,2-b]pyridine-3-carbonitrile] | 242 to 245 °C |
| N#Cc1cnc2c(sc3ccccc32)c1Nc1ccc(Cl)cc1F [Example 66, 4-(4-Chloro-2-fluorophenylamino)benzo[4,5]thieno[3,2-b]pyridine-3-carbonitrile] | 250 to 251 °C |
| CCOc1cc2cc3c(Nc4cc(OC)c(Cl)cc4C)c(C#N)cnc3cc2cc1OCCCl [Example 179, 8-(2-Chloroethoxy)-4-(4-chloro-5-methoxy-2-methylanilino)-7-ethoxybenzo[g]quinoline-3-carbonitrile] | 129 to 130 °C |
| Cc1ccc(Nc2c(C#N)cnc3c2oc2ccccc23)cc1O [Example 87, 4-(3-Hydroxy-4-methylphenylamino)benzo[4,5]furo[3,2-b]pyridine-3-carbonitrile] | 240 °C (dec.) |
| COc1cc(Nc2c(C#N)cnc3cc4cc(OC)c(OCCN5CCC(O)CC5)cc4cc23)c(Cl)cc1Cl | 150 to 160 °C |
| COc1cc2cc3ncc(C#N)c(Nc4ccc(OCc5ccccc5)c(Cl)c4)c3cc2cc1OCCCl [Example 186, 4-(4-Benzyloxy-3-chlorophenylamino)-7-(2-chloroethoxy)-8-methoxybenzo[g]quinoline-3-carbonitrile] | 182 to 185 °C |
| COc1cc2cc3ncc(C#N)c(Nc4cc(OC)c(OC)c(OC)c4)c3cc2cc1OCCN1CCN(C)CC1 | 115 to 120 °C (dec.) |
| N#Cc1cnc2cc3cc(O)ccc3cc2c1Nc1ccc(Cl)cc1Cl [Example 106, 4-(2,4-Dichloroanilino)-8-hydroxybenzo[g]quinoline-3-carbonitrile] | 267 to 269 °C |
| COc1cc(Nc2c(C#N)cnc3c2sc2ccccc23)c(Cl)cc1Cl [Example 68, 4-(2,4-Dichloro-5-methoxyphenylamino)benzo[4,5]thieno[3,2-b]pyridine-3-carbonitrile] | 234 to 236 °C |
| Cc1ccc(Nc2c(C#N)cnc3c2sc2ccccc23)cc1O [Example 70, 4-(3-Hydroxy-4-methylphenylamino)benzo[4,5]thieno[3,2-b]pyridine-3-carbonitrile] | 260 °C (dec.) |
| N#Cc1cnc2cc3ccccc3cc2c1Nc1ccc(F)c(Cl)c1 [Example 4, 4-(3-Chloro-4-fluoroanilino)benzo[g]quinoline-3-carbonitrile] | 257 to 259 °C |
| Cc1ccc(Nc2c(C#N)cnc3c2C=C2N=CN=C2C3)cc1O [Example 41, 8-(3-Hydroxy-4-methylphenylamino)imidazo[4,5-g]quinoline-7-carbonitrile] | 257 to 260 °C (dec.) |
| COc1cc2cc3c(Nc4ccc(Sc5nccn5C)c(Cl)c4)c(C#N)cnc3cc2cc1OCCCN1CCOCC1 [Example 151, 4-[3-Chloro-4-(1-methyl-1H-imidazol-2-ylsulfanyl)phenylamino]-7-methoxy-8-(3-morpholin-4-yl-propoxy)benzo[g]quinoline-3-carbonitrile] | 230 to 235 °C |
| COc1cc(Nc2c(C#N)cnc3cc4cc(OCCN5CCC(O)CC5)c(OC)cc4cc23)c(Cl)cc1Cl | 193 to 198 °C |
| N#Cc1cnc2c(c1Nc1cccc(Br)c1)C=C1N=CN=C1C2 [Example 37, 8-(3-Bromo-phenylamino)imidazo[4,5-g]quinoline-7-carbonitrile] | 286 to 288 °C |
| COc1cc(Nc2c(C#N)cnc3c2C=C2N=C(CN4CCOCC4)N=C2C3)cc(OC)c1OC [Example 48, 2-(4-Morpholinylmethyl)-8-(3,4,5-trimethoxyanilino)imidazo[4,5-g]quinoline-7-carbonitrile] | 258 to 260 °C (dec.) |
